Reference: publication PMC6071089 (Nanomaterials, 2018)

Tested on: C2C12 cells
Assay: Inhibition of CCPs- and caveolae-mediated endocytosis of CK2.3-Qdots
Type: cell-based, murine
Details: then 100 nM CK2.3-Qdots 18 h, confocal
Protocol: C2C12 cells were grown in 35 mm dishes containing 18 mm × 18 mm square coverslips at a cell density of 1 × 10^4 cells/well for two days in DMEM media containing 20% FBS and 1% penicillin/streptomycin and at the end of the 2nd day, cells were serum starved with phenol-free DMEM media supplemented with 1% penicillin/streptomycin, but without FBS for 18 h. Next, we used chlorpromazine from Cayman chemical (Ann Arbor, MI, USA) to inhibit CCPs-mediated endocytosis. […] C2C12 cells were treated with 5 μm of Chlorpromazine in DMEM media supplemented with 10% FBS and 1% penicillin/streptomycin for 24 h [41]. […] C2C12 cells were treated with 50 μm of Lovastatin in phenol-free DMEM without FBS and supplemented only with 1% penicillin/streptomycin for 24 h [41, 42]. […] C2C12 cells were treated with 100 μm of methyl-β-cyclodextrin in phenol-free DMEM without FBS and supplemented only with 1% penicillin/streptomycin for 24 h [43]. […] After 18 h, cells were fixed using 4.4% (w/v) paraformaldehyde purchased from Sigma-Aldrich (St. Louis, MO, USA) for 20 min and permeabilized with 0.05% (w/v) saponin from Sigma-Aldrich (St. Louis, MO, USA) diluted in diH2O, for 10 min on ice. Later the nucleus was stained using 100 μL (0.5 ng/mL) of Hoechst (catalog # 23491-45-4) from Sigma-Aldrich (St. Louis, MO, USA). The coverslips were then mounted on the slides using Airvol [38]. Slides were imaged using Zeiss LSM 710 at 63×/1.4 Plan-Apochromat oil objective.
To inhibit both endocytic pathways we used methyl-β-cyclodextrin (MβCD) [60]. […] C2C12 cells were either left unstimulated or stimulated with the pharmacological inhibitors for 24 h. […] Cells were fixed, and images were collected using a confocal microscope (Figure 11).

## CC[C@H](C)C(=O)O[C@H]1C[C@@H](C)C=C2C=C[C@H](C)[C@H](CC[C@@H]3C[C@@H](O)CC(=O)O3)[C@H]21 [lovastatin, Lovastatin]
Lovastatin 50 μm, 24 h pre-treatment (caveolae inhibitor)
  effect of inhibitor on uptake of CK2.3-Qdots: prevented CK2.3-Qdot®s from entering C2C12 cells

## Methyl-β-cyclodextrin [MβCD]
methyl-β-cyclodextrin 100 μm, 24 h pre-treatment (CCP and caveolae inhibitor)
  effect of inhibitor on uptake of CK2.3-Qdots: prevented CK2.3-Qdot®s from entering C2C12 cells

## CN(C)CCCN1c2ccccc2Sc2ccc(Cl)cc21 [chlorpromazine, Chlorpromazine]
Chlorpromazine 5 μm, 24 h pre-treatment (CCP inhibitor)
  effect of inhibitor on uptake of CK2.3-Qdots: did not affect the uptake
